# Reference: patent US6727244B2, “Mammalian metabolites of a tachykinin receptor antagonist” (Merck & Co., Inc., priority 2000, dated 2004)
# Tests used:
# [1] = glucuronidation in liver microsomes from rats; type: in vitro ADME; conditions: rat liver microsomes, UDPGA, 37° C. for 60 min
# Method: All liver microsomal and cytosolic fractions were prepared using the following procedure. Thawed livers were homogenized with 2 volumes of 50 mM Tris-buffer (pH 7.5) containing 1.15% KCl. For microsomal and cytosolic preparations, the homogenate was centrifuged for 20 min at 9,000×g and the resulting supernatant was centrifuged for 60 min at 105,000×g. The resulting cytosolic fractions were re-centrifuged at 105,000×g for 60 min. Fractions of cytosol were aliquoted into small tubes and stored at −70° C. Subsequently, the microsomal pellets were washed with 10 mM EDTA containing 1.15% KCl and were centrifuged at 105,000×g for 60 min. […] Protein concentrations were determined by a modified Lowry assay (Smith et al., 1985). The specific cytochrome P450 content in each microsomal preparation was measured as described by Omura and Sato, J. Biol. Chem. 239, 2370-2378 (1964).
# The typical reaction mixture (500 μl) containing 10 mM MgCl2, 2% glycerol, 0.02% lubrol PX, 3 mM UDPGA, 1 mg liver microsomes, 50 mM bis-tris propane buffer (pH 8.5) and ˜10 or 25 μM compound (in 15 μl methanol) was incubated at 37° C. for 30-60 min. After incubation, the reactions were terminated by the addition of four volumes of acetonitrile and processed and analyzed by HPLC as mentioned above.
# [2] = oxidative metabolism in liver microsomes from rats; type: in vitro ADME; conditions: rat liver microsomes, 15 min incubation
# Method: All liver microsomal and cytosolic fractions were prepared using the following procedure. Thawed livers were homogenized with 2 volumes of 50 mM Tris-buffer (pH 7.5) containing 1.15% KCl. For microsomal and cytosolic preparations, the homogenate was centrifuged for 20 min at 9,000×g and the resulting supernatant was centrifuged for 60 min at 105,000×g. The resulting cytosolic fractions were re-centrifuged at 105,000×g for 60 min. Fractions of cytosol were aliquoted into small tubes and stored at −70° C. Subsequently, the microsomal pellets were washed with 10 mM EDTA containing 1.15% KCl and were centrifuged at 105,000×g for 60 min. Washed microsomes were resuspended in 10 mM potassium phosphate buffer (pH 7.4) containing 250 mM sucrose, aliquoted into small tubes, and stored at −70° C. Protein concentrations were determined by a modified Lowry assay (Smith et al., 1985). The specific cytochrome P450 content in each microsomal preparation was measured as described by Omura and Sato, J. Biol. Chem. 239, 2370-2378 (1964). […]
# Method A was conducted on a Shimadzu HPLC system (Shimadzu Scientific Instruments Inc., Columbia Md.). The parent compounds and their metabolites were monitored directly using a radiometric detector (INUS Systems Inc. Tampa, Fla.) and Ultima-Flow M (Packard Instrument Co., Meridan Conn.) as scintillant at a flow rate of 3 mL/min. […]
smiles,measurement,setting,value
"C[C@@H](O[C@H]1OCCN[C@H]1c1ccc(F)cc1)c1cc(C(F)(F)F)cc(C(F)(F)F)c1 [Metabolite M-1, (2R,3S)-2-[(1R)-1-[3,5-bis(trifluoromethyl)phenyl]ethoxy]-3-(4-fluorophenyl)morpholine]",conversion to the corresponding glucuronide,[1],~20%
same,parent compound remained after incubation,[2],~50%
